Tests used:
APL patients = conditions: orally administrated; cited from earlier work
[1] = Representative effective dose in humans (Table 16); format: in vivo, human; conditions: oral
Excerpt: The PANDA Agent comprising a three and/or five valence arsenic is generally effective in treating cancer in a human at a wide range of dosages by intravenous injection and oral administration.
The PANDA Agent comprising a three and/or five valence antimony is generally effective in treating cancer in a human at a wide range of dosages by intravenous injection and oral administration. In certain embodiments, the effective dose results in a maximum Sb concentration in the patient's blood (plasma) from about 3.58 mg/L to about 357.5 mg/L, preferably from about 3.58 mg/L to about 179 mg/L, more preferably from about 7.15 mg/L to about 179 mg/L, more preferably from about 7.15 mg/L to about 107 mg/L, more preferably from about 12 mg/L to about 107 mg/L, more preferably from about 32.7 to about 38.8 mg/L. In certain embodiments, the daily dose is from about 20 mg/kg, wherein the maximum Sb concentration is from about 32.7 mg/L to about 38.8 mg/L, and wherein the platform Sb concentration in blood (plasma) is about 3.5 mg/L.
The PANDA Agent comprising a three and/or five valence bismuth is generally effective in treating cancer in a human at a wide range of dosages by intravenous injection and oral administration. In certain embodiments, the effective dose results in a maximum Bi concentration in the patient's blood (plasma) from about 3 mg/L to about 300 mg/L, preferably from about 3 mg/L to about 150 mg/L, more preferably from about 6 mg/L to about 150 mg/L, more preferably from about 6 mg/L to about 90 mg/L, more preferably from about 10 mg/L to about 90 mg/L, more preferably from about […]. In certain embodiments, the daily dose is from about 20 mg/kg, wherein the maximum Bi concentration is from about 32.7 mg/L to about 38.8 mg/L, and wherein the platform Bi concentration in blood (plasma) is about 3.5 mg/L.

[2] = Representative effective dose for mouse studies (Table 15); format: in vivo; conditions: oral
Method: The PANDA Agent comprising a three and/or five valence arsenic is generally effective in treating cancer in a subject, including an animal, at a dose at a wide range of dosages by intravenous injection and oral administration. In certain embodiments, the daily dosage is from about 0.5 mg/kg to about 50 mg/kg, preferably from about 0.5 mg/kg to about 25 mg/kg, more preferably from about 1 mg/kg to about 25 mg/kg, more preferably from about 1 mg/kg to about 15 mg/kg, more preferably from about 1.7 mg/kg to about 15 mg/kg, and more preferably from about 1.7 mg/kg to about 5 mg/kg. In certain embodiments, the dose is about 5 mg/kg. In certain embodiments, the PANDA Agent ATO is administered by intravenous injection or by oral administration at 1 mg/ml concentration, at a dose of 5 mg/kg per day.
In other embodiments, the daily dosage is from about 10 mg/kg to about 1000 mg/kg, preferably from about 10 mg/kg to about 500 mg/kg, more preferably from about 20 mg/kg to about 500 mg/kg, more preferably from about 20 mg/kg to about 300 mg/kg, more preferably from about 33 mg/kg to about 300 mg/kg, and more preferably from about 33 mg/kg to about 100 mg/kg. In certain embodiments, the dose is about 100 mg/kg. In certain embodiments, the PANDA Agent As2S2, As2S3, As2S5, and As4S4 is administered by oral administration at 15 mg/L concentration, at a dose of 100 mg/kg
(§1) The PANDA Agent comprising a three valence and/or five valence antimony is generally effective in treating cancer in a subject, including an animal, at a dose at a wide range of dosages by intravenous injection and oral administration. In certain embodiments, dosage is from about 60 mg/kg to about 6000 mg/kg, preferably from about 60 mg/kg to about 3000 mg/kg, more preferably from about 120 mg/kg to about 3000 mg/kg, more preferably from about 120 mg/kg to about 1500 mg/kg, more preferably from about 150 mg/kg to about 1200 mg/kg, and more preferably from about 300 mg/kg to about 1200 mg/kg. In certain embodiments, the dose is about 600 mg/kg. In certain embodiments, the PANDA Agent is administered by intravenous or oral administration at 100 mg/ml concentration, at a dose of 600 mg/kg per day.
as §1, with “bismuth” for “antimony”, “embodiments, the daily” for “embodiments,”, “In certain embodiments, the dose is about 600 mg/kg. In certain embodiments, the PANDA Agent is administered by intravenous or oral administration at 100 mg/ml concentration, at a dose of 600 mg/kg per day.” left out

mp53 [3] = assay: mp53 rescue profile (either structurally or functionally rescuable); format: cell-based, human; conditions: Table 8; label = mp53 mutation; rescue agent ATO
mp53 [4] = assay: PAb1620 immunoprecipitation, structural rescuability of indicated mp53s (with/without ATO); format: cell-based, human; conditions: for Str. Res. (whether the mp53 is structurally rescuable): Table 8, label = mp53 mutation, rescue agent ATO; for Str. Res: Table 9, structurally rescuable by PANDA Agent ATO, label = mp53; for 1620 TP (PAb1620 immunoprecipitation efficiency): presence vs absence of ATO, cell line not indicated in this part of Table 9
Method: (§2) For p53 folding assay, H1299 cells transfected with indicated TP53 were treated with 1 μg/ml ATO for 2 hr, and cells were lysed followed by immunoprecipitation using PAb1620. Immunoprecipitated p53 was immunoblotted. Experiments are repeated twice. For p53 transcriptional activity assay, H1299 cells were co-transfected with indicated TP53 and PUMA reporter for 24 hr, followed by treatment of 1 μg/ml ATO for 24 hr. […] X-axis: PAb1620 IP efficiency; Y-axis: PUMA luciferase report signal. Hollow cycles: without ATO treatment; solid cycles: with ATO treatment.
NP40 buffer at room temperature.

mp53 [5] = assay: Functional rescuability of indicated mp53s (Luciferase, qPCR and/or Western blot); format: cell-based, human; conditions: for Func. Res. (whether the mp53 is functionally rescuable): Table 8, label = mp53 mutation, rescue agent ATO; for Func. Res: Table 9, functionally rescuable by PANDA Agent ATO, label = mp53
Method: as §2
Cells were plated at a concentration of 2×10^4 cells/well in 24-well plates, followed by transfection of luciferase reporter plasmids for 24 hr. All transfection contained 300 ng p53 expressing plasmid, 100 ng of luciferase reporter plasmid and 5 ng of renilla plasmid per well. After agent treatment, cells were lysed in luciferase reporter assay buffer and determined using a luciferase assay kit (Promega). Activities of luciferase were divided by that of renilla to normalize the transfection efficiency.
Total RNA was isolated from cells using Total RNA Purification Kit (B518651, Sangon Biotech). 1 μg total RNA was reverse-transcribed using the GoScript®™ Reverse Transcriptase System (A5001, Promega) following manufacturer's protocol. PCR was performed in triplicate using SYBR green mix (Applied Biosystems), and a ViiA™ 7 Real-Time PCR System (Applied Biosystems) under the following conditions: 10 min at 95° C. followed by 40 cycles of 95° C. for 15 s and 60° C. for 1 min. Specificity of the PCR product was checked for each primer set and samples from the melting curve analysis. Expression levels of targeted genes were normalized relative to levels of β-actin adopting comparative Ct method. The primer sequences are as follows: MDM2 forward 5′-[…]-3′, reverse 5′-[…]-3′; PIG3 forward 5′-[…]-3′, reverse 5′-[…]-3′; PUMA forward 5′-[…]-3′, reverse 5′-[…]-3′; p21 forward 5′-[…]-3′, reverse 5′-[…]-3′; Bax forward 5′-[…]-3′, reverse 5′-[…]-3′; #-actin forward 5′-[…]-3′, reverse 5′-[…]-3′.

p53 = assay: Inductively coupled plasma mass spectroscopy (ICP-MS), arsenic per p53; format: binding
Excerpt: We further discovered that elemental arsenic, elemental bismuth, elemental antimony, and compounds containing elemental arsenic, bismuth, and/or antimony are good rescue compounds for mp53. […] The arsenic-, bismuth-, and antimony-mediated mp53 rescue is achieved by binding of the released arsenic, bismuth, and antimony to mp53. […] The arsenic-, bismuth-, and antimony-mediated mp53 rescue also elevates mp53 Tm. […] Moreover, these rescue compounds can also rescue one or more mp53s.

[6] = presence vs absence of ATO, cell line not indicated

Molecule | Maximun Metal concentration in blood (plasma) [1] [mg/L] | Platform Metal concentration in blood (plasma) [1] | Representative effective dose: Dose per day [1] [mg/kg] | Representative effective dose: Dose per day [2] [mg/kg] | Str. Res (mp53 [4]) | 1620 TP (PAb1620 immunoprecipitation efficiency) (mp53 [4]) [fold] | Func. Res (mp53 [5]) | Luciferase Assay PUMA (mp53 [5]; [6]) [fold] | other results
S1[As]2S[As]3S[As]2S[As]13 [As4S4, reference compound] | 0.57 to 1.31 | 0.03 to 0.07 mg/L | 2.80 | 100 | – | – | – | – | efficacy in treating APL patients (in words) (APL patients): as effective as conventional intravenous ATO
S=[As]S[As]=S (centres unmarked) [As2S3] | 0.57 to 1.31 | 0.03-0.07 L mg/L | 3.20 | 100 | – | – | – | – | –
R283H | – | – | – | – | Yes (can be rescured by the PANDA Agent ATO, as measured to a 1.5 fold or more increase in PAb1620 immunoprecipitation signal) | 1.6 | Yes (the PANDA Agent can rescue one or more of the mp53's wild type function to a 1.5 fold or more, as measured by luciferase assay, qPCR, or Western blot) | 1.6 | Res. (either structurally or functionally rescuable) (mp53 [3]): Yes; Str. Res. (whether the mp53 is structurally rescuable) (mp53 [4]): Yes; Func. Res. (whether the mp53 is functionally rescuable) (mp53 [5]): Yes
H179P | – | – | – | – | – | – | – | – | Res. (either structurally or functionally rescuable) (mp53 [3]): Yes; Str. Res. (whether the mp53 is structurally rescuable) (mp53 [4]): Yes; Func. Res. (whether the mp53 is functionally rescuable) (mp53 [5]): Yes
S=[As][As]=S (centres unmarked) [As2S2] | 0.57 to 1.31 | 0.03 to 0.07 mg/L | 2.80 | 100 | – | – | – | – | –
[AsH3] [arsenic] | – | – | – | – | – | – | – | – | arsenic bound per p53 (ICP-MS) (p53): 0.93±0.19 arsenic per p53
D281H | – | – | – | – | Yes (can be rescured by the PANDA Agent ATO, as measured to a 1.5 fold or more increase in PAb1620 immunoprecipitation signal) | 2.1 | Yes (the PANDA Agent can rescue one or more of the mp53's wild type function to a 1.5 fold or more, as measured by luciferase assay, qPCR, or Western blot) | 2.2 | –
S=[As](=S)S[As](=S)=S [As2S5] | – | – | 4.05 | 100 | – | – | – | – | –
H179R | – | – | – | – | Yes (can be rescured by the PANDA Agent ATO, as measured to a 1.5 fold or more increase in PAb1620 immunoprecipitation signal) | 4.6 | Yes (the PANDA Agent can rescue one or more of the mp53's wild type function to a 1.5 fold or more, as measured by luciferase assay, qPCR, or Western blot) | 1.8 | Luciferase Assay CDKNIA (mp53 [5]; [6]): 1.0 fold

From patent publication US20210205260A1, “MP53 RESCUE COMPONDS AND METHODS OF TREATING A P53 DISORDER” (priority 2018, published 2021)
